Test system: Bovine cardiac myofibrils
Assay: In vitro model of dose-dependent myofibril ATPase modulation (AC1.4, pyruvate kinase/lactate dehydrogenase-coupled ATPase assay at pCa25)
Assay type: biochemical
Details: concentration at which ATPase activity was 1.4-fold higher than the bottom of the dose curve, mean of a minimum of two independent tests
Method in brief: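 Bovine cardiac myofibrils, detergent-treated; 0.25-1.0 mg/ml. Buffer: K-PIPES 12 mM, MgCl2 2 mM, DTT 1 mM, BSA 0.1 mg/ml, pH 6.80, 22° C; Ca2+ set by EGTA/CaCl2. ATP 1 mM, NADH/PEP-coupled, A340. 4-parameter fit; n≥2.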

Structure (SMILES)	AC1.4 [µM]
N#CC1CC(S(=O)(=O)c2cccc(C(=O)N3CCCC[C@@H]3C(=O)NCc3ccc(C(F)(F)F)nc3)c2)C1 (stereo partly drawn) [Example 460, (R)-1-(3-((3-cyanocyclobutyl)sulfonyl)benzoyl)-N-((6-(trifluoromethyl)pyridin-3-yl)methyl)piperidine-2-carboxamide]	1.915
CCC(NC(=O)[C@H]1CCCN1C(=O)[C@H]1CCCN(S(=O)(=O)N2CC(C)(O)C2)C1)c1ccc(C(F)(F)F)cc1 (stereo partly drawn) [Example 668, (2R)-1-((S)-1-((3-hydroxy-3-methylazetidin-1-yl)sulfonyl)piperidine-3-carbonyl)-N-(1-(4-(trifluoromethyl)phenyl)propyl)pyrrolidine-2-carboxamide]	4.71
CC(C)C[C@@H](NC(=O)[C@H]1CCCN1C(=O)[C@H]1CCCN(S(=O)(=O)N2CC(C#N)C2)C1)c1ccc(C(F)(F)F)cc1 [Example 68, 1-(((3S)-1-((3-cyano-1-azetidinyl)sulfonyl)-3-piperidinyl)carbonyl)-N-((1R)-3-methyl-1-(4-(trifluoromethyl)phenyl)butyl)-D-prolinamide]	0.0784
O=C(NCc1ccc(Cl)c(F)c1)[C@H]1CCCN1C(=O)c1cccc(S(=O)(=O)N2CC(F)(F)C2)c1 [Example 238, N-(4-chloro-3-fluorobenzyl)-1-(3-((3,3-difluoro-1-azetidinyl)sulfonyl)benzoyl)-D-prolinamide]	0.5606
N#CC1CN(S(=O)(=O)N2CCC[C@H](C(=O)N3CCC[C@@H]3C(=O)NC(c3ccc(Cl)cc3)C3CCCO3)C2)C1 (stereo partly drawn) [Example 132, N-(-(4-chlorophenyl)(-tetrahydro-2-furanyl)methyl)-1-(((3S)-1-((3-cyano-1-azetidinyl)sulfonyl)-3-piperidinyl)carbonyl)-D-prolinamide]	0.2176
C[C@@H](NC(=O)[C@H]1CCCN1C(=O)c1cccc(S(=O)(=O)N2CC(C)(O)C2)c1)c1ccc(C(F)(F)F)cc1 [Example 466, 1-(3-((3-hydroxy-3-methyl-1-azetidinyl)sulfonyl)benzoyl)-N-((1R)-1-(4-(trifluoromethyl)phenyl)ethyl)-D-prolinamide]	1.961

Next, values leading:

AC1.4 [µM]	Structure (SMILES)
2.1945	CS(=O)(=O)c1ccc(C(=O)N2CCC[C@@H]2C(=O)N[C@@H](c2ccc(C(F)(F)F)cc2F)C2CC2)cn1 [Example 505, N-((R)-cyclopropyl(2-fluoro-4-(trifluoromethyl)phenyl)methyl)-1-((6-(methylsulfonyl)-3-pyridinyl)carbonyl)-D-prolinamidev]
0.7437	CS(=O)(=O)N1CC(F)(c2cccc(C(=O)N3CCC[C@@H]3C(=O)N[C@@H](c3ccc(C(F)(F)F)cc3F)C3CC3)c2)C1 [Example 286, N-((R)-cyclopropyl(2-fluoro-4-(trifluoromethyl)phenyl)methyl)-1-(3-(3-fluoro-1-(methylsulfonyl)-3-azetidinyl)benzoyl)-D-prolinamide]
3.0845	NS(=O)(=O)c1ccc(F)c(C(=O)N2CCC[C@@H]2C(=O)N[C@@H](c2ccc(C(F)(F)F)cc2F)C2CC2)c1 [Example 566, N-((R)-cyclopropyl(2-fluoro-4-(trifluoromethyl)phenyl)methyl)-1-(2-fluoro-5-sulfamoylbenzoyl)-D-prolinamide]
7.314	CC(C)c1cc(C(=O)N2[C@@H](C(=O)N[C@@H](c3ccc(C(F)(F)F)cc3F)C3COC3)C[C@H]3C[C@H]32)ccn1 [Example 748, (1R,3R,5R)-N-((R)-(2-fluoro-4-(trifluoromethyl)phenyl)(3-oxetanyl)methyl)-2-((2-(2-propanyl)-4-pyridinyl)carbonyl)-2-azabicyclo[3.1.0]hexane-3-carboxamide]
0.6526	CC(C)(C(N)=O)c1cccc(C(=O)N2[C@@H](C(=O)N[C@@H](c3cc(F)c(Cl)cc3F)C3COC3)C[C@H]3C[C@H]32)c1 [Example 263, (1R,3R,5R)-2-(3-(1-amino-2-methyl-1-oxo-2-propanyl)benzoyl)-N-((R)-(4-chloro-2,5-difluorophenyl)(3-oxetanyl)methyl)-2-azabicyclo[3.1.0]hexane-3-carboxamide]

Source: patent US11780826B2 (Amgen Inc., priority 2017, dated 2023)
